The source of these data is ChEMBL document CHEMBL3046053, “Synthesis, characterization and herbicidal activity of new thiazoline derivatives” (2013).

Assay type in all cases: functional
Holding throughout (settings): read-out: GI

Assay [1] has as its system Brassica napus. In words: Herbicidal activity against Brassica napus (oilseed rape) assessed as inhibition of root growth at 10 mg/L relative to untreated control.
Assay [2] concerns Brassica napus. In words: Herbicidal activity against Brassica napus (oilseed rape) assessed as inhibition of stalk growth at 10 mg/L relative to untreated control.
Assay [3] has as its system Echinochloa crus-galli. The assay is described as follows: Herbicidal activity against barnyard grass Echinochloa crus-galli (barnyard grass) assessed as inhibition of stalk growth at 100 mg/L relative to untreated control.
Assay [4] concerns Echinochloa crus-galli. In words: Herbicidal activity against barnyard grass Echinochloa crus-galli (barnyard grass) assessed as inhibition of root growth at 100 mg/L relative to untreated control.
For assay [5], the system named is Echinochloa crus-galli. In words: Herbicidal activity against barnyard grass Echinochloa crus-galli (barnyard grass) assessed as inhibition of stalk growth at 10 mg/L relative to untreated control.
Assay [6] deals with Brassica napus. The assay is described as follows: Herbicidal activity against Brassica napus (oilseed rape) assessed as inhibition of root growth at 100 mg/L relative to untreated control.
Assay [7] relates to Brassica napus. In words: Herbicidal activity against Brassica napus (oilseed rape) assessed as inhibition of stalk growth at 100 mg/L relative to untreated control.
The subject of assay [8] is Echinochloa crus-galli. In words: Herbicidal activity against barnyard grass Echinochloa crus-galli (barnyard grass) assessed as inhibition of root growth at 10 mg/L relative to untreated control.

The structures appear in SMILES notation.

As to `CCC/N=c1\sc(C(=O)OCC)c(N)n1-c1ccccc1`, the inhibition of growth at 10 µg/mL in the assay on Brassica napus [1] is 40%; with Brassica napus [2], 4.3%; with Echinochloa crus-galli [5], 9.7%; in the assay on Echinochloa crus-galli [8], 50%. The inhibition of growth at 100 µg/mL in the assay on Echinochloa crus-galli [3] came to 35.5%; in the assay on Echinochloa crus-galli [4] it was 68.1%; with Brassica napus [6], 48%; with Brassica napus [7] it was 26.1%.
For `O=C(O)COc1ccc(Cl)cc1Cl` [2,4-DICHLOROPHENOXYACETIC ACID], the inhibition of growth at 10 µg/mL with Brassica napus [1] is 88.8%; in the assay with Brassica napus [2], 87.5%; in the assay on Echinochloa crus-galli [5], 33.3%; in the assay with Echinochloa crus-galli [8] it was 90%. In addition, the inhibition of growth at 100 µg/mL turned out to be 43.5% with Echinochloa crus-galli [3], 97.5% with Echinochloa crus-galli [4], 98% in the assay on Brassica napus [6] and 91.2% in the assay on Brassica napus [7].
Take `CCOC(=O)c1s/c(=N\CC/N=c2/sc(C(=O)OCC)c(N)n2-c2ccccc2)n(-c2ccccc2)c1N`: the inhibition of growth at 10 µg/mL was determined as 39.7% with Brassica napus [1], 52% with Brassica napus [2], 15.4% with Echinochloa crus-galli [5] and 37.9% with Echinochloa crus-galli [8]. Moreover, the inhibition of growth at 100 µg/mL in the assay with Echinochloa crus-galli [3] came out at 34.6%; in the assay on Echinochloa crus-galli [4] it was 58.6%; in the assay on Brassica napus [6], 76.9%; in the assay on Brassica napus [7] it was 52%.
On to `CCCCCC/N=c1\sc(C(=O)OCC)c(N)n1-c1ccccc1`, for which the inhibition of growth at 10 µg/mL with Brassica napus [1] is 43.4%; in the assay on Brassica napus [2] it was 64%; in the assay on Echinochloa crus-galli [5] it was 33.3%; in the assay on Echinochloa crus-galli [8] it was 76.7%. Further, the inhibition of growth at 100 µg/mL was 33.3% in the assay on Echinochloa crus-galli [3], 86% in the assay with Echinochloa crus-galli [4], 92.5% with Brassica napus [6] and 89% in the assay on Brassica napus [7].
With `CCOC(=O)c1s/c(=N\c2ccccc2)n(-c2ccccc2)c1N`, the inhibition of growth at 10 µg/mL with Brassica napus [1] is 37.7%; with Brassica napus [2], 52%; in the assay on Echinochloa crus-galli [5], 31.6%; in the assay with Echinochloa crus-galli [8] it was 69.8%. Moreover, the inhibition of growth at 100 µg/mL worked out at 43.3% in the assay with Echinochloa crus-galli [3], 86% with Echinochloa crus-galli [4], 71.7% in the assay with Brassica napus [6] and 64% with Brassica napus [7].
For the molecule `CCOC(=O)c1s/c(=N\Cc2ccccc2Cl)n(-c2ccccc2)c1N`, the inhibition of growth at 10 µg/mL with Brassica napus [1] was -9.3%; in the assay on Brassica napus [2] it was -13%; in the assay with Echinochloa crus-galli [5], 12.9%; with Echinochloa crus-galli [8], 18.8%. Besides, the inhibition of growth at 100 µg/mL in the assay with Echinochloa crus-galli [3] came to 26.5%; with Echinochloa crus-galli [4] it was 19.4%; with Brassica napus [6], 38.6%; in the assay with Brassica napus [7] it was 34.8%.
Turning to `CCOC(=O)c1s/c(=N\c2ccc(Br)cc2)n(-c2ccccc2)c1N`, the inhibition of growth at 10 µg/mL in the assay with Brassica napus [1] is 32.1%; in the assay on Brassica napus [2] it was 44%; in the assay with Echinochloa crus-galli [5], 31.6%; with Echinochloa crus-galli [8], 76.7%. Moreover, the inhibition of growth at 100 µg/mL stood at 48.1% in the assay with Echinochloa crus-galli [3], 88.4% in the assay on Echinochloa crus-galli [4], 90.6% in the assay on Brassica napus [6] and 72% in the assay with Brassica napus [7].
As for `CCOC(=O)c1s/c(=N\CCCCCC/N=c2/sc(C(=O)OCC)c(N)n2-c2ccccc2)n(-c2ccccc2)c1N`, the inhibition of growth at 10 µg/mL came to 21.8% in the assay with Brassica napus [1], 12% in the assay on Brassica napus [2], 19.2% in the assay with Echinochloa crus-galli [5] and 34.5% in the assay on Echinochloa crus-galli [8]. Further, the inhibition of growth at 100 µg/mL in the assay on Echinochloa crus-galli [3] is 38.5%; in the assay on Echinochloa crus-galli [4], 69%; with Brassica napus [6], 50%; in the assay with Brassica napus [7], 32%.
For the molecule `CCOC(=O)c1s/c(=N\Cc2ccccc2)n(-c2ccccc2)c1N`, the inhibition of growth at 10 µg/mL in the assay on Brassica napus [1] amounted to 47.2%; with Brassica napus [2] it was 20%; in the assay on Echinochloa crus-galli [5], 40.7%; in the assay on Echinochloa crus-galli [8] it was 74.4%. Also, the inhibition of growth at 100 µg/mL with Echinochloa crus-galli [3] is 44.4%; in the assay with Echinochloa crus-galli [4] it was 83.7%; in the assay on Brassica napus [6] it was 98.1%; with Brassica napus [7], 92%.
For `CCCC/N=c1\sc(C(=O)OCC)c(N)n1-c1ccccc1`, the inhibition of growth at 10 µg/mL was found to be 0% in the assay with Brassica napus [1], 0% with Brassica napus [2], 19.4% with Echinochloa crus-galli [5] and 25% in the assay on Echinochloa crus-galli [8]. Further, the inhibition of growth at 100 µg/mL worked out at 22.6% in the assay on Echinochloa crus-galli [3], 34.4% in the assay on Echinochloa crus-galli [4], 29.3% in the assay with Brassica napus [6] and 39.1% in the assay with Brassica napus [7].
For the molecule `CCOC(=O)c1s/c(=N\c2ccc(C)cc2)n(-c2ccccc2)c1N`, the inhibition of growth at 10 µg/mL in the assay on Brassica napus [1] amounted to 34%; with Brassica napus [2], 44%; in the assay with Echinochloa crus-galli [5], 25.9%; with Echinochloa crus-galli [8], 79.1%. In addition, the inhibition of growth at 100 µg/mL was 49.6% with Echinochloa crus-galli [3], 88.4% in the assay on Echinochloa crus-galli [4], 79.2% in the assay with Brassica napus [6] and 44% in the assay with Brassica napus [7].
Regarding `CCOC(=O)c1s/c(=N\c2ccc(OC)cc2)n(-c2ccccc2)c1N`, the inhibition of growth at 10 µg/mL came to 64% in the assay on Brassica napus [1], 66% in the assay with Brassica napus [2], 42.2% with Echinochloa crus-galli [5] and 74.4% in the assay on Echinochloa crus-galli [8]. Also, the inhibition of growth at 100 µg/mL is 61.9% with Echinochloa crus-galli [3], 90.7% in the assay on Echinochloa crus-galli [4], 94.3% in the assay on Brassica napus [6] and 92% with Brassica napus [7].
`CCOC(=O)c1s/c(=N\CCC/N=c2\sc(C(=O)OCC)c(N)n2-c2ccccc2)n(-c2ccccc2)c1N`: the inhibition of growth at 10 µg/mL amounted to 7.7% in the assay with Brassica napus [1], 12% in the assay with Brassica napus [2], 3.8% with Echinochloa crus-galli [5] and 31% in the assay on Echinochloa crus-galli [8]. Moreover, the inhibition of growth at 100 µg/mL in the assay on Echinochloa crus-galli [3] was found to be 34.6%; with Echinochloa crus-galli [4] it was 58.6%; in the assay with Brassica napus [6] it was 41%; in the assay with Brassica napus [7] it was 36%.
